{"source": "patent US6384225B1", "about": "“Intermediates in the preparation of substituted chroman derivatives” (AstraZeneca AB, priority 1997, dated 2002)"}
{"smiles": "Cc1ccc(C(=O)N[C@@H]2COc3c(C)ccc(N4CCN(C)CC4)c3C2)cc1", "note": "[Example 11, (S)-N-[8-Methyl-5-(4-methylpiperazin-1-yl)-3,4-dihydro-2H-1-benzopyran-3-yl]-4-methylbenzamide]", "values": [{"measurement": "melting point", "result": "191 to 192", "unit": "°C"}]}
{"smiles": "CN1CCN(c2ccc(C(N)=O)c3c2C[C@H](NC(=O)c2ccc(C(=O)c4ccccc4)cc2)CO3)CC1", "note": "[Example 14, (S)-N-[8-Carbamoyl-5-(4-methylpiperazin-1-yl)-3,4-dihydro-2H-1-benzopyran-3-yl]-4-benzoylbenzamide]", "values": [{"measurement": "melting point", "result": "259 °C (dec.)"}]}
{"smiles": "COc1ccc(N2CCN(C)CC2)c2c1OCC(C(=O)Nc1ccc(N3CCOCC3)cc1)C2", "note": "(stereo not drawn) [Example 20, N-(4-Morpholinophenyl)-8-methoxy-5-(4-methylpiperazin-1-yl)-3,4-dihydro-2H-1-benzopyran-3-carboxamide]", "values": [{"measurement": "melting point", "result": "202 to 204", "unit": "°C"}]}
